Where two headings read alike, the source gives them in different places.
Assays:
GLP-1R = GLP-1R (Homo sapiens, UniProt P43220); test: GLP-1R activation: cAMP increase in CHO cells stably expressing GLP-1R; format: cell-based; details: read-out: EC50
[1] = Microsomal stability, human liver microsomes (predicted hepatic clearance); details: predicted from in vitro microsomal stability data
[2] = cAMP increase, CHO cells stably expressing GLP-1R, 10 point dose response, 30 minutes incubation

GLP-1R, sequence (P43220 24-463): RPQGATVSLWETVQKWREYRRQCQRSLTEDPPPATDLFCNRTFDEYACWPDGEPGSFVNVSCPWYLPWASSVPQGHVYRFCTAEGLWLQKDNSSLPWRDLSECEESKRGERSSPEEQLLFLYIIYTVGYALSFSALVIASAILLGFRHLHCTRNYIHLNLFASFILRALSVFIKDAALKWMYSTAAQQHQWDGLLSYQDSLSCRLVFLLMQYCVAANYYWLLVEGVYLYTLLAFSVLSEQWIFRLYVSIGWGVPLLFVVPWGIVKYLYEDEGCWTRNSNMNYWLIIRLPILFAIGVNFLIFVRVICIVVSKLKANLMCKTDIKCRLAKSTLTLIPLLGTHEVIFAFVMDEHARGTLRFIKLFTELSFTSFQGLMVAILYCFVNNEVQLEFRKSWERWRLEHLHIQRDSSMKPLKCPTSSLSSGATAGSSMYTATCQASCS

Structure (SMILES) | EC50 (GLP-1R; [2]) [nM] | Predicted Hepatic Clearance (Pred. Cl.) [1] [L/h/kg] | EC50 (GLP-1R) [nM]
COCCn1c(Cc2cc(F)c(-c3cccc(OCc4ccc(C(F)(F)F)cc4F)n3)cc2F)nc2ccc(C(=O)O)cc21 [Example 557, 2-(2,5-difluoro-4-(6-((2-fluoro-4-(trifluoromethyl)benzyl)oxy)pyridin-2-yl)benzyl)-1-(2-methoxyethyl)-1H-benzo[d]imidazole-6-carboxylic acid] | 0.47 | 0.13 | 
COCCn1c(Cc2ccc(-c3ccnc(OCc4ccc(C#N)cc4F)n3)c(F)c2)nc2c(F)cc(C(=O)O)cc21 [Example 558, 2-(4-(2-((4-cyano-2-fluorobenzyl)oxy)pyrimidin-4-yl)-3-fluorobenzyl)-4-fluoro-1-(2-methoxyethyl)-1H-benzo[d]imidazole-6-carboxylic acid] | 22.4 | 0.24 | 
COC[C@H](C)n1c(Cc2cc(F)c(-c3cccc(OCc4ccc(C#N)cc4F)n3)cc2F)nc2ccc(C(=O)O)cc21 [Example 559, (S)-2-(4-(6-((4-cyano-2-fluorobenzyl)oxy)pyridin-2-yl)-2,5-difluorobenzyl)-1-(1-methoxypropan-2-yl)-1H-benzo[d]imidazole-6-carboxylic acid] | 2.62 | 0.41 | 
COC[C@@H](C)n1c(Cc2cc(F)c(-c3cccc(OCc4ccc(C#N)cc4F)n3)cc2F)nc2ccc(C(=O)O)cc21 [Example 560, (R)-2-(4-(6-((4-cyano-2-fluorobenzyl)oxy)pyridin-2-yl)-2,5-difluorobenzyl)-1-(1-methoxypropan-2-yl)-1H-benzo[d]imidazole-6-carboxylic acid] | 1.92 | 0.35 | 
N#Cc1ccc(COc2cccc(-c3cc(F)c(Cc4nc5ccc(C(=O)O)cc5n4CCN4CCOCC4)cc3F)n2)c(F)c1 [Example 561, 2-(4-(6-((4-cyano-2-fluorobenzyl)oxy)pyridin-2-yl)-2,5-difluorobenzyl)-1-(2-morpholinoethyl)-1H-benzo[d]imidazole-6-carboxylic acid] |  | 0.57 | 24.1
COCCn1c(Cc2cc(F)c(-c3cccc(OCc4ccc(Cl)cc4F)n3)cc2F)nc2ccc(C(=O)O)cc21 [Example 563, 2-(4-(6-((4-chloro-2-fluorobenzyl)oxy)pyridin-2-yl)-2,5-difluorobenzyl)-1-(2-methoxyethyl)-1H-benzo[d]imidazole-6-carboxylic acid] | 1 | 0.22 | 
COCCn1c(Cc2cc(F)c(-c3cccc(OCc4cc(F)c(Cl)cc4F)n3)cc2F)nc2ccc(C(=O)O)cc21 [Example 564, 2-(4-(6-((4-chloro-2,5-difluorobenzyl)oxy)pyridin-2-yl)-2,5-difluorobenzyl)-1-(2-methoxyethyl)-1H-benzo[d]imidazole-6-carboxylic acid] | 1.96 | 0.205 | 
COCCn1c(Cc2cc(F)c(-c3cccc(OCc4cc(F)c(C#N)cc4F)n3)cc2F)nc2ccc(C(=O)O)cc21 [Example 565, 2-(4-(6-((4-cyano-2,5-difluorobenzyl)oxy)pyridin-2-yl)-2,5-difluorobenzyl)-1-(2-methoxyethyl)-1H-benzo[d]imidazole-6-carboxylic acid] | 4.91 | 0.36 | 
CO[C@H]1C[C@H](n2c(Cc3cc(F)c(-c4cccc(OCc5ccc(C#N)cc5F)n4)cc3F)nc3ccc(C(=O)O)cc32)C1 [Example 567, 2-(4-(6-((4-cyano-2-fluorobenzyl)oxy)pyridin-2-yl)-2,5-difluorobenzyl)-1-((1r,3r)-3-methoxycyclobutyl)-1H-benzo[d]imidazole-6-carboxylic acid] | 1130 | 0.46 | 
N#Cc1ccc(COc2cccc(-c3cc(F)c(Cc4nc5ccc(C(=O)O)cc5n4Cc4cnns4)cc3F)n2)c(F)c1 [Example 569, 1-((1,2,3-thiadiazol-5-yl)methyl)-2-(4-(6-((4-cyano-2-fluorobenzyl)oxy)pyridin-2-yl)-2,5-difluorobenzyl)-1H-benzo[d]imidazole-6-carboxylic acid] | 10.4 | 1.02 | 
N#Cc1ccc(COc2cccc(-c3cc(F)c(Cc4nc5ccc(C(=O)O)cc5n4CC45CC(CO4)C5)cc3F)n2)c(F)c1 [Example 574] | 0.63 | 0.115 | 
N#Cc1ccc(COc2cccc(-c3cc(F)c(Cc4nc5ccc(C(=O)O)cc5n4CC45CC(C#N)(CO4)C5)cc3F)n2)c(F)c1 [Example 575, 2-(4-(6-((4-cyano-2-fluorobenzyl)oxy)pyridin-2-yl)-2,5-difluorobenzyl)-1-((4-cyano-2-oxabicyclo[2.1.1]hexan-1-yl)methyl)-1H-benzo[d]imidazole-6-carboxylic acid] | 37.2 | 0.52 | 
N#Cc1ccc(COc2cccc(-c3cc(F)c(Cc4nc5ccc(C(=O)O)cc5n4Cc4nncs4)cc3F)n2)c(F)c1 [Example 576, 1-((1,3,4-thiadiazol-2-yl)methyl)-2-(4-(6-((4-cyano-2-fluorobenzyl)oxy)pyridin-2-yl)-2,5-difluorobenzyl)-1H-benzo[d]imidazole-6-carboxylic acid] | 0.86 | 0.48 | 
N#Cc1ccc(COc2cccc(-c3cc(F)c(Cc4nc5ccc(C(=O)O)cc5n4CC4(n5ccnn5)CC4)cc3F)n2)c(F)c1 [Example 577, 1-((1-(1H-1,2,3-triazol-1-yl)cyclopropyl)methyl)-2-(4-(6-((4-cyano-2-fluorobenzyl)oxy)pyridin-2-yl)-2,5-difluorobenzyl)-1H-benzo[d]imidazole-6-carboxylic acid] | 0.4 | 0.45 | 
Cn1ncnc1Cn1c(Cc2cc(F)c(-c3cccc(OCc4ccc(C#N)cc4F)n3)cc2F)nc2ccc(C(=O)O)cc21 [Example 578, 2-(4-(6-((4-cyano-2-fluorobenzyl)oxy)pyridin-2-yl)-2,5-difluorobenzyl)-1-((1-methyl-1H-1,2,4-triazol-5-yl)methyl)-1H-benzo[d]imidazole-6-carboxylic acid] | 13.8 | 0.28 | 
N#Cc1ccc(COc2cccc(-c3cc(F)c(Cc4nc5ccc(C(=O)O)cc5n4Cc4ccns4)cc3F)n2)c(F)c1 [Example 579, 2-(4-(6-((4-cyano-2-fluorobenzyl)oxy)pyridin-2-yl)-2,5-difluorobenzyl)-1-(isothiazol-5-ylmethyl)-1H-benzo[d]imidazole-6-carboxylic acid] | 0.35 | 0.96 | 
N#Cc1ccc(COc2cccc(-c3cc(F)c(Cc4nc5ccc(C(=O)O)cc5n4Cc4ccsn4)cc3F)n2)c(F)c1 [Example 580, 2-(4-(6-((4-cyano-2-fluorobenzyl)oxy)pyridin-2-yl)-2,5-difluorobenzyl)-1-(isothiazol-3-ylmethyl)-1H-benzo[d]imidazole-6-carboxylic acid] | 1.94 | 0.35 | 
CC1(Cn2c(Cc3cc(F)c(-c4cccc(OCc5ccc(C#N)cc5F)n4)cc3F)nc3ccc(C(=O)O)cc32)COC1 [Example 581, 2-(4-(6-((4-cyano-2-fluorobenzyl)oxy)pyridin-2-yl)-2,5-difluorobenzyl)-1-((3-methyloxetan-3-yl)methyl)-1H-benzo[d]imidazole-6-carboxylic acid] | 0.4 | 0.38 | 
N#Cc1ccc(COc2cccc(-c3cc(F)c(Cc4nc5ccc(C(=O)O)nc5n4CCOC(F)F)cc3F)n2)c(F)c1 [Example 583, 2-(4-(6-((4-cyano-2-fluorobenzyl)oxy)pyridin-2-yl)-2,5-difluorobenzyl)-3-(2-(difluoromethoxy)ethyl)-3H-imidazo[4,5-b]pyridine-5-carboxylic acid] | 2.39 | 0.62 | 
N#Cc1ccc(COc2cccc(-c3ccc(Cc4nc5c(F)cc(C(=O)O)cc5n4Cc4ccon4)c(F)c3)n2)c(F)c1 [Example 585, 2-(4-(6-((4-cyano-2-fluorobenzyl)oxy)pyridin-2-yl)-2-fluorobenzyl)-4-fluoro-1-(isoxazol-3-ylmethyl)-1H-benzo[d]imidazole-6-carboxylic acid] | 0.81 | 0.14 | 
COC(C)(C)Cn1c(Cc2cc(F)c(-c3cccc(OCc4ccc(C#N)cc4F)n3)cc2F)nc2ccc(C(=O)O)cc21 [Example 586, 2-(4-(6-((4-cyano-2-fluorobenzyl)oxy)pyridin-2-yl)-2,5-difluorobenzyl)-1-(2-methoxy-2-methylpropyl)-1H-benzo[d]imidazole-6-carboxylic acid] | 0.54 | 0.46 | 
CO[C@@H](C)Cn1c(Cc2cc(F)c(-c3cccc(OCc4ccc(C#N)cc4F)n3)cc2F)nc2ccc(C(=O)O)cc21 [Example 587, (S)-2-(4-(6-((4-cyano-2-fluorobenzyl)oxy)pyridin-2-yl)-2,5-difluorobenzyl)-1-(2-methoxypropyl)-1H-benzo[d]imidazole-6-carboxylic acid] | 2.15 | 0.41 | 
CO[C@H](C)Cn1c(Cc2cc(F)c(-c3cccc(OCc4ccc(C#N)cc4F)n3)cc2F)nc2ccc(C(=O)O)cc21 [Example 588, (R)-2-(4-(6-((4-cyano-2-fluorobenzyl)oxy)pyridin-2-yl)-2,5-difluorobenzyl)-1-(2-methoxypropyl)-1H-benzo[d]imidazole-6-carboxylic acid] | 1.33 | 0.39 | 
COC(=O)N1CCC[C@@H]1Cn1c(Cc2cc(F)c(-c3cccc(OCc4ccc(C#N)cc4F)n3)cc2F)nc2ccc(C(=O)O)cc21 [Example 589, (R)-2-(4-(6-((4-cyano-2-fluorobenzyl)oxy)pyridin-2-yl)-2,5-difluorobenzyl)-1-((1-(methoxycarbonyl)pyrrolidin-2-yl)methyl)-1H-benzo[d]imidazole-6-carboxylic acid] |  | 0.49 | 5.46
